Laboratory results: US4908360A, “1-aminoalkyl-3-oxysubstituted-4-aryl-1,3,4,5-tetr ahydro-2H-1,3-benzodiazepine-2-ones” (Hoechst-Roussel Pharmaceuticals Inc., priority 1988, dated 1990)

Key:
[1] = tested on: 2-phenyl-1,4-benzoquinone-induced writhing in mice; experiment: 2-phenyl-1,4-benzoquinone-induced writhing test in mice (analgesia); format: in vivo; settings: subcutaneous
Text: Compounds of the present invention are useful as analgesic agents due to their ability to alleviate pain in mammals. […] Exptl. Biol. Med. 95,729 (1957)].

[2] = target: T1, nitrendipine binding (ventricle membranes) (Rattus norvegicus, UniProt P22002); experiment: nitrendipine binding assay (calcium ion antagonism), [3H]-nitrendipine, rat heart ventricle membranes; design: species or system Male Wistar rats; settings: 1 h, pH 7.4, 25° C., one hour; for Increase in [3H]-nitrendipine binding (%) at 20 µM: concentration 2.0 (moles) × 10^-5
T1 construct: These resuspension and recentrifugation steps are repeated twice more to wash the ventricle membranes; from tissue; host or cells: heart ventricle membranes of male Wistar rats
T1 sequence (P22002 whole entry, other chains not shown): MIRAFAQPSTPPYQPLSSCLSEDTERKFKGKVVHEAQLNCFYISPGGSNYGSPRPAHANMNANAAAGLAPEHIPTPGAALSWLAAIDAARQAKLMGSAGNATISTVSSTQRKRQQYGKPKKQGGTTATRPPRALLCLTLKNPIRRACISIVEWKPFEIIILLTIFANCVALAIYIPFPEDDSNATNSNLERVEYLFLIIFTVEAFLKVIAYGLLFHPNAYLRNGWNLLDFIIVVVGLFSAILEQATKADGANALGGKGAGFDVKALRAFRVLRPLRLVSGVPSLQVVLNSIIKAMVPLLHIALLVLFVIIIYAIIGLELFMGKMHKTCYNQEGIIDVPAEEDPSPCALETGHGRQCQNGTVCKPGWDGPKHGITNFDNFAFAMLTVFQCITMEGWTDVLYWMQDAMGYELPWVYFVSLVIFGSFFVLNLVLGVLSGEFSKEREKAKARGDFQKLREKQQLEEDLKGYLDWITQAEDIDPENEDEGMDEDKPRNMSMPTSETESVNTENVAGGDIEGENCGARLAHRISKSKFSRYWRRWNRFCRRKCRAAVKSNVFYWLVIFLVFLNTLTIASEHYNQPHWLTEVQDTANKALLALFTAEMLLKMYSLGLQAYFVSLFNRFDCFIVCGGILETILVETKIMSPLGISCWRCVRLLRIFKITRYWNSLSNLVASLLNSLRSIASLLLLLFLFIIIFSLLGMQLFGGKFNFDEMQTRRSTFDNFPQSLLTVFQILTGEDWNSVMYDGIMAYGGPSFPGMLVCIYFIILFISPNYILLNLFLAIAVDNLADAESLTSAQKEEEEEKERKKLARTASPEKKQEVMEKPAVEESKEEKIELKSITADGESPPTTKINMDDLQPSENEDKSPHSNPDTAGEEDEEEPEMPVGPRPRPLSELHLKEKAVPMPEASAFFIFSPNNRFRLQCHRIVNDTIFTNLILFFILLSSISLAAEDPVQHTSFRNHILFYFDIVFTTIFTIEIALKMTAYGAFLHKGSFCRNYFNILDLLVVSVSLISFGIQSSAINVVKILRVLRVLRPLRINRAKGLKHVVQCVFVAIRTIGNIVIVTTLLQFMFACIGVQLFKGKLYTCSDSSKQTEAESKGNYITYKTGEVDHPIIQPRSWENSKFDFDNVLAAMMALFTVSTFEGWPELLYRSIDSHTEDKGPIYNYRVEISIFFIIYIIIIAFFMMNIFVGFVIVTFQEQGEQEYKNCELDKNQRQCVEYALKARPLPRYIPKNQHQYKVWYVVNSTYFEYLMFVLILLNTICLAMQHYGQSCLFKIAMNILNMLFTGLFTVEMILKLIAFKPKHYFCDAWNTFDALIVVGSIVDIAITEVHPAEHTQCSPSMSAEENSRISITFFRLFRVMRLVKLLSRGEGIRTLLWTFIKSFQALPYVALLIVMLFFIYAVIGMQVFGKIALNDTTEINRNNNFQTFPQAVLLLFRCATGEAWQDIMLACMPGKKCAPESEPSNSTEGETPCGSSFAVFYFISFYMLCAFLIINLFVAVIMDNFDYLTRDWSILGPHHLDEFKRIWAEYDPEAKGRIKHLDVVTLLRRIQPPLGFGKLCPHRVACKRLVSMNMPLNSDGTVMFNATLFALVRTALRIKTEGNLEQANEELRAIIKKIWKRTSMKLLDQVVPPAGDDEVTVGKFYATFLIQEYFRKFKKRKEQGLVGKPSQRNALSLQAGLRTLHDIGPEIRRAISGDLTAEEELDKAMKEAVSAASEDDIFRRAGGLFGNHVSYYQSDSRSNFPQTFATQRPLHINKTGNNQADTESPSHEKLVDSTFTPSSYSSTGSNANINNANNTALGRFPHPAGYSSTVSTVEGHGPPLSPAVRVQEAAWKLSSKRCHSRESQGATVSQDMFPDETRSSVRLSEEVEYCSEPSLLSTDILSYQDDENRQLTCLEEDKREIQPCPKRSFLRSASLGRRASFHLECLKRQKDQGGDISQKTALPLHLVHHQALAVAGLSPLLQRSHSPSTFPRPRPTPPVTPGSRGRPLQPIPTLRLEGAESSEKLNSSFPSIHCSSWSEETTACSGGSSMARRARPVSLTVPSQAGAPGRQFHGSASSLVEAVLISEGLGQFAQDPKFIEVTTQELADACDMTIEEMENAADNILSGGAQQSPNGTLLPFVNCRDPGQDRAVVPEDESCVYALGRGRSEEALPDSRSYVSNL
T1 sequence (P54290 25-945 partner limits assumed, other chains not shown): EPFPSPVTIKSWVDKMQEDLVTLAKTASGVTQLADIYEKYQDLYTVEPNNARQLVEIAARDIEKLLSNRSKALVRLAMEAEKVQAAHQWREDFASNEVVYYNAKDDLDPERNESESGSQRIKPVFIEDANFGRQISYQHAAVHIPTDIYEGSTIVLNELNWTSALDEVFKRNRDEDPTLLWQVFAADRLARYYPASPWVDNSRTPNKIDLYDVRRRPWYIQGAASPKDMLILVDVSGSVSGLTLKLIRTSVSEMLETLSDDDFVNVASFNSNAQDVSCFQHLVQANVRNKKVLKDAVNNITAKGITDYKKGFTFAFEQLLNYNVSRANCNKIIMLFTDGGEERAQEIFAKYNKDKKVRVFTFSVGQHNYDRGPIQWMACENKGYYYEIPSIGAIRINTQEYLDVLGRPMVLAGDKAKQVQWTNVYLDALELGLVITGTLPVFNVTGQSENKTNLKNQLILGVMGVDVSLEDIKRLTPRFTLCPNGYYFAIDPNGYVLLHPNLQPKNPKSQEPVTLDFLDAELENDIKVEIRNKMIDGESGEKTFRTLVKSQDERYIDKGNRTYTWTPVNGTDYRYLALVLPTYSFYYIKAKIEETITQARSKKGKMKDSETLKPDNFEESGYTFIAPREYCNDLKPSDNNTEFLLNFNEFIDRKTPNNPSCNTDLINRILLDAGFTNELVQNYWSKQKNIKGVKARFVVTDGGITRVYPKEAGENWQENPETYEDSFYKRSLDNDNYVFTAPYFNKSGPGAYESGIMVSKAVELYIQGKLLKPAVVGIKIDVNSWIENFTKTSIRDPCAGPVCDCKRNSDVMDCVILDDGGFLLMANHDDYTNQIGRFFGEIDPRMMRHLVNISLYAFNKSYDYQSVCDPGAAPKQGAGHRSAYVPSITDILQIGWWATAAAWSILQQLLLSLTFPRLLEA
T1 sequence (P54290 946-1091 partner limits assumed, other chains not shown): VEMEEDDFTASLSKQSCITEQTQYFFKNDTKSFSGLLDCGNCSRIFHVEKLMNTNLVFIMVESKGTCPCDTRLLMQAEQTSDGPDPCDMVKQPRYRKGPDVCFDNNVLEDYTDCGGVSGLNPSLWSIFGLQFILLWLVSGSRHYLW
Procedure: The compounds of the present invention are also useful as calcium ion antagonists which are useful to control cardiovascular activities, including potential antihypertensive activity. Calcium ion antagonism is measured in the nitrendipine binding assay.
The nitrendipine binding assay is carried out in the following manner. The reagents employed are (1) 0.5 M tris Buffer, pH 7.4, prepared by combining 66.1 g of Tris HCl, 9.7 g of Tris base in 1 liter of distilled water and thereafter making a 1:10 dilution in distilled water; (2) [5-methyl-^3H]-Nitrendipine (70-81 Ci/mmol, obtained from New England Nuclear; and (3) Nifedipine. Tissue is prepared as follows. Male Wistar rats are killed by decapitation, hearts are removed and the ventricles are dissected away from the aorta and aortic tissue. The ventricles are rinsed and homogenized in 19 volumes of ice-cold 0.05 M Tris buffer, pH 7.4 using a Tekmar homogenizer. The homogenate is filtered through four layers of cheese cloth and centrifuged at 1,000 g for 10 minutes. The supernatant is decanted and recentrifuged at 48,000 g for 20 minutes. The resulting pellet is resuspended in the original volume of Tris buffer and recentrifuged at 48,000 g for 20 minutes. These resuspension and recentrifugation steps are repeated twice more to wash the ventricle membranes. The final pellet is resuspended in the original volume of 0.05 M Tris buffer. The assay itself employs 500 ul of ventricle membrane suspension; 50 ul of 0.5 M Tris buffer, pH 7.4; […] [^3 H]-nitrendipine; 20 μl of candidate drug; 380 μl of water in a test tube and is carried out in a darkened room. The test tubes are incubated for one hour at 25° C. […] The filters are washed three times with 5 ml of ice-cold 0.05 M Tris buffer, pH 7.4 and counted in 10 ml of Liquiscint scintillation cocktail. Specific binding is determined by the difference of total binding and binding in the presence of 0.1 μM nifedipine and is roughly 70-75% of the total binding. […] IC50 values for the competing drug are calculated by log-probit analysis of the data.

Structure (SMILES)	Inhibition in Writhing (%) ([1]; 15.1 mg/kg of body weight)	Inhibition in Writhing (%) ([1]; 20 mg/kg of body weight)	Increase in [3H]-nitrendipine binding (%) at 20 µM [2] [%]	Increase in [3H]-nitrendipine binding (%) at 10 µM ([2]; concentration 1.0 (moles) × 10^-5, standard) [%]
CN1CC[C@@]23CCCC[C@@H]2[C@@H]1Cc1ccc(O)cc13 [dextrorphan, reference compound]	50	–	–	–
CON1C(=O)N(CCCN(C)C)c2ccccc2CC1c1ccccc1 (racemic) [(±) -1-[3-(N,N-Dimethylamino)propyl]-3-methoxy-4-phenyl-1,3,4,5-tetrahydro-2H-1,3-benzodiazepine-2-one]	–	37	25.7	–
COc1ccc([C@@H]2Sc3ccccc3N(CCN(C)C)C(=O)[C@@H]2OC(C)=O)cc1 [diltiazem, reference compound]	–	–	–	85
CON1C(=O)N(CCN(C)C)c2ccccc2CC1c1ccccc1 (racemic) [(±) -1-[2-(N,N-dimethylamino)ethyl]-3-methoxy-4-phenyl-1,3,4,5-tetrahydro-2H-1,3-benzodiazepine-2-one]	–	37	27.6	–
